Holding throughout (format): toxicity, cell-based, Cricetulus griseus
What all share (settings): chinese hamster, 168 h, time 7 day

In series [1] the test system is CHO. As to the kind of experiment: Cytotoxicity against CHO cells expressing AGT and glycolate oxidase assessed as reduction in cell viability at 50 uM measured after 7 days by crystal violet staining assay.
For series [2], the system named is CHO. The experiment in a line: Cytotoxicity against CHO cells expressing AGT G41R variant and glycolate oxidase assessed as reduction in cell viability at 50 uM measured after 7 days by crystal violet staining assay.
In series [3] the test system is CHO. The experiment in a line: Cytotoxicity against CHO cells expressing AGT G41R variant and glycolate oxidase assessed reduction in cell viability at 50 uM measured after 7 days in presence of pyridoxine by crystal violet staining assay.

Take `Cl.NOCc1ccc(F)cc1F`: the Activity result in series [1] and in series [2] was “Non-Toxic” in each case.
`NOCc1cc2ccccc2s1`: in series [1], the Activity entry is given as “Non-Toxic”.
With `COc1c(C)cnc(CON)c1C`, the Activity result in series [1], in series [2] and in series [3] was “Non-Toxic” throughout.
Take `NOCc1cccc(-c2ccc(C(F)(F)F)cc2)c1`: the Activity entry in series [1], in series [2] and in series [3] was “Non-Toxic” throughout.
`CN1CCN(c2cccc(CON)c2)CC1`: the Activity entry in series [1], in series [2] and in series [3] was “Toxic” in each case.

The record behind these values is ChEMBL document CHEMBL5143737, “Identification of Human Alanine-Glyoxylate Aminotransferase Ligands as Pharmacological Chaperones for Variants Associated with Primary Hyperoxaluria Type 1” (J Med Chem, 2022).
